This test addresses T1, Human AMPK α2β2γ1 (Homo sapiens, UniProt O43741+P54646).
T1 construct: The full length cDNAs of human AMPK β2 (NM_005399.3) and human AMPK α2 (NM_006252.3); The full length cDNAs of human AMPK β2 (NM_005399.3); the full length cDNA of human AMPK γ1 (NM_002733.3) had been inserted into pET28b(+); 6xHis (N); made in house; host or cells: Escherichia coli BL21 CodonPlus (DE3)-RTL (AMPK); BL21 Star (DE3) (CaMKKβ)
Briefly: Test Example 2: evaluation of an activator for AMP-activated protein kinase (AMPK), human AMPK α2β2γ1 phosphorylated with CaMKK2, FL-Peptide 7 mobility shift. In kind it is biochemical. The settings on record: for Emax: read-out: Emax (maximum rate of increase in activity within the measurement range). Here is the method:
The full length cDNAs of human AMPK β2 (NM_005399.3) and human AMPK α2 (NM_006252.3) were inserted into the MCS1 and MCS2 of the pETDuet-1 vector to prepare a human AMPK β2 and human AMPK α2 (6× His tag at the 5′ terminus) expressing plasmid. The plasmid was cotransfected with an expression plasmid, in which the full length cDNA of human AMPK γ1 (NM_002733.3) had been inserted into pET28b(+), into BL21 CodonPlus (DE3)-RTL to obtain an expression strain. The expression strain was cultured in TB medium, followed by induction with 0.5 mM IPTG, and cultured at 25° C. for 3 hours and then harvested.
An expression vector, in which the full length cDNA of human CAMKK β (NM_172226.1) had been inserted into pGEX-6P-3, was transfected into BL21 Star (DE3). The expression strain was cultured in TB medium, followed by induction with 0.5 mM IPTG, and cultured at 25° C. for 3 hours and then harvested.
Thus, phosphorylation treatment was carried out as pretreatment.
Human AMPK α2β2γ1 in an amount to give a conversion rate of approximately 10% by reaction for 2 hours, and CaMKK2 in an amount capable of sufficiently imparting activity to AMPK for one hour were mixed in a buffer solution consisting of a 50 mM HEPES-NaOH buffer solution (pH 7.0), 100 mM NaCl, 5 mM magnesium chloride, 0.1% bovine serum albumin, 0.2 mM sodium orthovanadate(V), 1 mM ethylene glycol-bis(2-aminoethyl ether)-N,N,N′,N′-tetraacetic acid (EGTA), 5 mM disodium β-glycerophosphate, 1 mM dithiothreitol and 0.2 mM ATP, and the obtained liquid was left to stand at 25° C. for 1 to 1.5 hours to sufficiently phosphorylate AMPK.
The obtained liquid was left to stand for 10 minutes.
The obtained liquid was allowed to react at 25° C. for 2 hours, and 10 μl of 20 mM EDTA was then added thereto to stop the reaction.
To detect phosphorylated fluorescent substrates, the reaction liquid was applied to a measuring device, LabChip EZ Reader II manufactured by Caliper Life Science, Inc., for detecting fluorescence by using differences in mobility due to differences in charge. The setting conditions for the device were pressure, −1.5 PSI; upstream voltage, −2250 V; downstream voltage, −400 V; post sample buffer sip time, 40 seconds; final delay, 120 seconds; and peak order, Product First.
A conversion rate was calculated from the peak heights of the resulting substrate and product. The conversion rate when not containing a compound was used as a control, and a concentration dependent curve was made by plotting the rate of increase in activity to the control at each concentration of a compound.

Where [1] appears, read: human AMPK α2β2γ1, 0.2 mM ATP final, 25° C., 2 hours.
The mark [2] stands for this setting: human AMPK α2β2γ1, relative to control (100%).

Like-named read-outs stand apart in the source and are kept apart here.

T1 sequence (P54646 whole entry): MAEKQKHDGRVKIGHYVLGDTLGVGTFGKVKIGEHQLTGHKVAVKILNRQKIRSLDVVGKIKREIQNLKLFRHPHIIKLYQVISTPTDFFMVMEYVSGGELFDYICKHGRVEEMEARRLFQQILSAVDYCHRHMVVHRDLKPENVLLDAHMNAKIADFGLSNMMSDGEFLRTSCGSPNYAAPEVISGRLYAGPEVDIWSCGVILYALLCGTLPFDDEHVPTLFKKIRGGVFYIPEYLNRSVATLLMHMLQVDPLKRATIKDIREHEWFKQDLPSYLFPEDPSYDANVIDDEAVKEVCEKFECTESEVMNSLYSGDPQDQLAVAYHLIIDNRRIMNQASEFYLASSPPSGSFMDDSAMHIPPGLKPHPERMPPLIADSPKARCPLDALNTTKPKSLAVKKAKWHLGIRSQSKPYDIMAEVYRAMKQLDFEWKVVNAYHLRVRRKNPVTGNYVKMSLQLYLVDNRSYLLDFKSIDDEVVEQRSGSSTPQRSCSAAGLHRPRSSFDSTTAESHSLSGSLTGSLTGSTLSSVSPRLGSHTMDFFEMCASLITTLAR
T1 sequence (O43741 whole entry): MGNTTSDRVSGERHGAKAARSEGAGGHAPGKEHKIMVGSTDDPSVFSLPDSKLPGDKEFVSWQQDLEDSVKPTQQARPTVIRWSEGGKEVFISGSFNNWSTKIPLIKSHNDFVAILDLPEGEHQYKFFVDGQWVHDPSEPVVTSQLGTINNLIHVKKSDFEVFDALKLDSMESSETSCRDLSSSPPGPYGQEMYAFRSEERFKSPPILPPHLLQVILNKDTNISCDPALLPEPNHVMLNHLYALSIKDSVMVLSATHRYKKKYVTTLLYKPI
T1 sequence (P54619 whole entry partner): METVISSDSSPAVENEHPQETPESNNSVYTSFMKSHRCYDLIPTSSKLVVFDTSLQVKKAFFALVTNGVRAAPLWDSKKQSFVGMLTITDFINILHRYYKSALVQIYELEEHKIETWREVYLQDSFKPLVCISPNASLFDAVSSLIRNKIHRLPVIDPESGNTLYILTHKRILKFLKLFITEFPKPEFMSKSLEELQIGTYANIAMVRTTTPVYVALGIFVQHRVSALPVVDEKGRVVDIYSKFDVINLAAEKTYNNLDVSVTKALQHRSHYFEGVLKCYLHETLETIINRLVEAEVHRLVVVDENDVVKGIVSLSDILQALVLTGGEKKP

The Emax is the maximal effect, on the per cent scale that the assay sets. On to `N#Cc1c(O[C@@H]2CO[C@H]3[C@@H]2OC[C@H]3O)[nH]c2cc(Cl)c(OCc3c(F)cccc3F)nc12` [Compound I-1-1], for which the “EC150 (compound concentration showing 150% relative to the control (100%))” value under setting [1] came out at 330 nM. In addition, the maximal response (Emax) under setting [2] worked out at 660%.
`N#Cc1cc2[nH]c(O[C@@H]3CO[C@H]4[C@@H]3OC[C@H]4O)cc2nc1-c1ccc(N2CCOCC2)cc1` [Compound I-1-4]: the “EC150 (compound concentration showing 150% relative to the control (100%))” value under setting [1] turned out to be 8.3 nM. Under setting [2], the Emax is 849%.
Turning to `O[C@@H]1CO[C@H]2[C@@H]1OC[C@H]2Oc1cc2nc(-c3c(F)cc(C4=CCOCC4)cc3F)c(F)cc2[nH]1` [Compound I-1-6], the “EC150 (compound concentration showing 150% relative to the control (100%))” value under setting [1] is listed as 2 nM. Further, the Emax under setting [2] is 647%.
Turning to `N#Cc1c(O[C@@H]2CO[C@H]3[C@@H]2OC[C@H]3O)[nH]c2cc(Cl)c(-c3ccc(-c4ccccc4)cc3)nc12` [Compound I-1-7], the “EC150 (compound concentration showing 150% relative to the control (100%))” value under setting [1] is 59 nM. The Emax under setting [2] worked out at 805%.
For `O=C(O)C1CC=C(c2ccc(-c3nc4cc(O[C@H]5CCOC5)[nH]c4cc3Cl)cc2)CC1` (stereo partly drawn) [Compound I-1-8], the “EC150 (compound concentration showing 150% relative to the control (100%))” value under setting [1] was found to be 4.1 nM. For the same compound, under setting [2], the Emax came out at 338%.
For `O=C(CO)N1CC=C(c2cc(F)c(-c3nc4cc(O[C@@H]5CO[C@H]6[C@@H]5OC[C@H]6O)[nH]c4cc3Cl)c(F)c2)CC1` [Compound I-1-10], in that order: 1.8 nM and 751%.
Taken in the same sequence, the figures for `O[C@@H]1CO[C@H]2[C@@H]1OC[C@H]2Oc1[nH]c2cc(Cl)c(-c3ccc(N4CCOCC4)cc3)nc2c1Cl` [Compound I-1-11] were 3.9 nM and 770%.
With `N#Cc1c(O[C@@H]2CO[C@H]3[C@@H]2OC[C@H]3O)[nH]c2cc(Cl)c(-c3ccc(C4=CCN(C(=O)CO)CC4)cc3)nc12` [Compound I-1-12], under setting [1], the “EC150 (compound concentration showing 150% relative to the control (100%))” value stood at 23 nM. For the same compound, the Emax under setting [2] turned out to be 779%.
For the compound `O[C@@H]1CO[C@H]2[C@@H]1OC[C@H]2Oc1[nH]c2cc(Cl)c(-c3c(F)cc(C4=CCOCC4)cc3F)nc2c1Cl` [Compound I-1-15], the “EC150 (compound concentration showing 150% relative to the control (100%))” value under setting [1] worked out at 53 nM. The Emax under setting [2] was determined as 680%.
For `CC(C)(C(=O)O)[C@H]1CC[C@H](Oc2cc3nc(-c4c(F)cc(N5CCOCC5)cc4F)c(Cl)cc3[nH]2)CC1` [Compound I-1-16], in that order: 810 nM and 204%.
Taken in the same sequence, the figures for `OC[C@@H]1C[C@H](Oc2cc3nc(-c4c(F)cc(N5CCOCC5)cc4F)c(Cl)cc3[nH]2)CO1` [Compound I-1-18] were 22 nM and 776%.
Consider `O=C(O)C1CC=C(c2ccc(-c3nc4c(Cl)c(O[C@@H]5CO[C@H]6[C@@H]5OC[C@H]6O)[nH]c4cc3Cl)cc2)CC1` (stereo partly drawn) [Compound I-1-20], for which, under setting [1], the “EC150 (compound concentration showing 150% relative to the control (100%))” value is 2.9 nM. Under setting [2], the Emax was 746%.
For the compound `O=C(O)C1CC=C(c2cc(F)c(-c3nc4cc(O[C@H]5CCOC5)[nH]c4cc3Cl)c(F)c2)CC1` (stereo partly drawn) [Compound I-1-23], the “EC150 (compound concentration showing 150% relative to the control (100%))” value under setting [1] is 11 nM. Also, under setting [2], the Emax came to 341%.
Taken in the same sequence, the figures for `O[C@@H]1CO[C@H]2[C@@H]1OC[C@H]2Oc1cc2nc(-c3ccc(N4CCOCC4)cc3F)c(Cl)cc2[nH]1` [Compound I-1-25] were 11 nM and 768%.
For `CN(C)CCOc1ccc(-c2ccc(-c3nc4c(C#N)c(O[C@@H]5CO[C@H]6[C@@H]5OC[C@H]6O)[nH]c4cc3Cl)cc2)cc1` [Compound I-1-37], in that order: 6 nM and 859%.
`COc1cccc(-c2ccc(-c3nc4c(C#N)c(O[C@@H]5CO[C@H]6[C@@H]5OC[C@H]6O)[nH]c4cc3Cl)cc2)c1O` [Compound I-1-38]: the “EC150 (compound concentration showing 150% relative to the control (100%))” value under setting [1] is on record as 1.5 nM. The Emax under setting [2] worked out at 841%.
Taken in the same sequence, the figures for `O[C@@H]1CO[C@H]2[C@@H]1OC[C@H]2Oc1cc2nc(-c3ccc(N4CCOCC4)cc3)c(F)cc2[nH]1` [Compound I-1-39] were 5.3 nM and 788%.
Taken in the same sequence, the figures for `CC(C)(C(=O)O)[C@H]1CC[C@H](Oc2cc3nc(-c4ccc(N5CC[C@@H](O)C5)cc4)c(Cl)cc3[nH]2)CC1` [Compound I-1-43] were 98 nM and 302%.
Regarding `O[C@@H]1CO[C@H]2[C@@H]1OC[C@H]2Oc1[nH]c2cc(F)c(-c3ccc(C4=CCOCC4)cc3)nc2c1Cl` [Compound I-1-45], the “EC150 (compound concentration showing 150% relative to the control (100%))” value under setting [1] is 13 nM. The Emax under setting [2] stood at 718%.
Taken in the same sequence, the figures for `O=C(CO)N1CC=C(c2ccc(-c3nc4cc(O[C@@H]5CO[C@H]6[C@@H]5OC[C@H]6O)[nH]c4cc3F)cc2)CC1` [Compound I-1-50] were 2.4 nM and 827%.
With `O=C(O)C1CC=C(c2ccc(-c3nc4c(Cl)c(O[C@@H]5CO[C@H](CO)C5)[nH]c4cc3Cl)cc2)CC1` (stereo partly drawn) [Compound I-1-55], the “EC150 (compound concentration showing 150% relative to the control (100%))” value under setting [1] turned out to be 54 nM. Besides, under setting [2], the Emax worked out at 689%.
With `N#Cc1c(O[C@@H]2CO[C@H]3[C@@H]2OC[C@H]3O)[nH]c2cc(Cl)c(-c3ccc(-c4ccc(-n5cncn5)cc4)cc3)nc12` [Compound I-1-58], the “EC150 (compound concentration showing 150% relative to the control (100%))” value under setting [1] came out at 3.8 nM. Under setting [2], the Emax was 836%.
For `O[C@@H]1CO[C@H]2[C@@H]1OC[C@H]2Oc1[nH]c2cc(Cl)c(-c3ccc(C4(O)CCC4)cc3)nc2c1Cl` [Compound I-1-62], in that order: 5.7 nM and 851%.
On to `C/C(=C\CNC(=O)CO)c1ccc(-c2nc3c(Cl)c(O[C@@H]4CO[C@H]5[C@@H]4OC[C@H]5O)[nH]c3cc2Cl)cc1` [Compound I-1-63], for which the “EC150 (compound concentration showing 150% relative to the control (100%))” value under setting [1] is reported as 6.3 nM. Moreover, the Emax under setting [2] turned out to be 791%.
Take `O[C@@H]1CO[C@H]2[C@@H]1OC[C@H]2Oc1cc2nc(-c3ccc(N4CCOCC4)cc3)c(C(F)(F)F)cc2[nH]1` [Compound I-2-2]: the “EC150 (compound concentration showing 150% relative to the control (100%))” value under setting [1] amounted to 38 nM. Also, under setting [2], the “Emax (maximum rate of increase in activity within the measurement range)” value is listed as 511%.
As to `O[C@@H]1CO[C@H]2[C@@H]1OC[C@H]2Oc1cc2nc(-c3ccc(N4CCOCC4)cc3)c(Cl)c(F)c2[nH]1` [Compound I-2-3], under setting [1], the “EC150 (compound concentration showing 150% relative to the control (100%))” value was 6.9 nM. For the same compound, the maximal effect (Emax) under setting [2] was 508%.
Take `N#Cc1c(Cl)c(-c2ccc(N3CCOCC3)cc2)nc2cc(O[C@@H]3CO[C@H]4[C@@H]3OC[C@H]4O)[nH]c12` [Compound I-2-7]: the “EC150 (compound concentration showing 150% relative to the control (100%))” value is 36 nM and the “Emax (maximum rate of increase in activity within the measurement range)” value is on record as 322%.
Turning to `O[C@@H]1CO[C@H]2[C@@H]1OC[C@H]2Oc1[nH]c2cc(Cl)c(-c3ccc(N4CCOCC4)cc3)nc2c1F` [Compound I-2-8], the “EC150 (compound concentration showing 150% relative to the control (100%))” value under setting [1] worked out at 8.9 nM. Besides, the “Emax (maximum rate of increase in activity within the measurement range)” value under setting [2] is recorded as 447%.
Take `O[C@@H]1CO[C@H]2[C@@H]1OC[C@H]2Oc1[nH]c2cc(Cl)c(-c3ccc(N4CCOCC4)cc3)nc2c1Br` [Compound I-2-9]: the “EC150 (compound concentration showing 150% relative to the control (100%))” value under setting [1] is reported as 66 nM. Moreover, under setting [2], the “Emax (maximum rate of increase in activity within the measurement range)” value was determined as 395%.
As for `O[C@@H]1CO[C@H]2[C@@H]1OC[C@H]2Oc1[nH]c2cc(C(F)(F)F)c(-c3ccc(N4CCOCC4)cc3)nc2c1F` [Compound I-2-10], under setting [1], the “EC150 (compound concentration showing 150% relative to the control (100%))” value is on record as 49 nM. Also, the “Emax (maximum rate of increase in activity within the measurement range)” value under setting [2] was determined as 506%.

For the origin of these results see patent US9980948B2, “Azaindole derivative having AMPK-activating activity” (Shionogi & Co., Ltd., priority 2014, dated 2018).
